From ChEMBL document CHEMBL5120927, “LEGO-Lipophosphonoxins: A Novel Approach in Designing Membrane Targeting Antimicrobials” (J Med Chem, 2022)
Converted amounts (≈) assume the structure as drawn.

Assays:
[1] = tested on: Staphylococcus aureus; test: Antibacterial activity against Staphylococcus aureus ATCC 29213 = CCM 4223 assessed as inhibition of bacterial growth incubated for 24 hrs by microdilution assay; type: functional
[2] = Gradient chromatographic hydrophobicity index of the compound at pH 3.7 by HPLC analysis; type: ADME
[3] = tested on: Staphylococcus aureus; test: Antibacterial activity against methicillin resistant Staphylococcus aureus 4591/A assessed as reduction in microbial growth incubated for 24 hrs by microdilution assay; type: functional
[4] = tested on: Pseudomonas aeruginosa; test: Antibacterial activity against Pseudomonas aeruginosa ATCC 27853 = CCM 3955 assessed as inhibition of bacterial growth incubated for 24 hrs by microdilution assay; type: functional
[5] = tested on: Escherichia coli; test: Antibacterial activity against multidrug-resistant Escherichia coli CE5556 expressing CTX-M-15 assessed as reduction in microbial growth incubated for 24 hrs by microdilution assay; type: functional
[6] = tested on: Escherichia coli; test: Antibacterial activity against Escherichia coli ATCC 25922 = CCM 3954 assessed as inhibition of bacterial growth incubated for 24 hrs by microdilution assay; type: functional
[7] = tested on: Escherichia coli; test: Antibacterial activity against Escherichia coli ATCC 25922 = CCM 3954 assessed as inhibition of bacterial growth incubated for 24 hrs in presence of BSA by microdilution assay; type: functional
[8] = tested on: Staphylococcus epidermidis; test: Antibacterial activity against Staphylococcus epidermidis CCM 7221 assessed as inhibition of bacterial growth incubated for 24 hrs by microdilution assay; type: functional
[9] = tested on: Staphylococcus aureus; test: Antibacterial activity against Staphylococcus aureus ATCC 29213 = CCM 4223 assessed as inhibition of bacterial growth incubated for 24 hrs in presence of BSA by microdilution assay; type: functional
[10] = tested on: Enterococcus faecium; test: Antibacterial activity against vancomycin resistant Enterococcus faecium 419/ANA assessed as reduction in microbial growth incubated for 24 hrs by microdilution assay; type: functional
[11] = tested on: Enterococcus faecalis; test: Antibacterial activity against Enterococcus faecalis ATCC 29212 = CCM 4224 assessed as inhibition of bacterial growth incubated for 24 hrs by microdilution assay; type: functional
[12] = Cytotoxicity against human HepG2 cells assessed as reduction in cell viability; type: toxicity, cell-based
[13] = tested on: Pseudomonas aeruginosa; test: Antibacterial activity against multidrug-resistant Pseudomonas aeruginosa assessed as reduction in microbial growth incubated for 24 hrs by microdilution assay; type: functional
[14] = Hemolytic activity in human RBC assessed as haemoglobin release measured after 3 hr; type: toxicity, cell-based, Erythrocyte; conditions: red blood cells (erythrocytes)
[15] = tested on: Staphylococcus aureus; test: Antibacterial activity against wild type Staphylococcus aureus 4504/A assessed as reduction in microbial growth incubated for 24 hrs by microdilution assay; type: functional
[16] = tested on: Staphylococcus aureus; test: Antibacterial activity against wild type Staphylococcus aureus 5079/C assessed as reduction in microbial growth incubated for 24 hrs by microdilution assay; type: functional
[17] = tested on: Staphylococcus aureus; test: Antibacterial activity against […] Staphylococcus aureus 4461/A assessed as reduction in microbial growth incubated for 24 hrs by microdilution assay; type: functional
[18] = tested on: Staphylococcus aureus; test: Antibacterial activity against wild type Staphylococcus aureus 78/CF assessed as reduction in microbial growth incubated for 24 hrs by microdilution assay; type: functional
[19] = tested on: Staphylococcus aureus; test: Antibacterial activity against […] Staphylococcus aureus 4463/A assessed as reduction in microbial growth incubated for 24 hrs by microdilution assay; type: functional
[20] = tested on: Staphylococcus aureus; test: Antibacterial activity against […] Staphylococcus aureus 4460/A assessed as reduction in microbial growth incubated for 24 hrs by microdilution assay; type: functional
[21] = tested on: Staphylococcus aureus; test: Antibacterial activity against wild type Staphylococcus aureus 4557/A assessed as reduction in microbial growth incubated for 24 hrs by microdilution assay; type: functional
[22] = tested on: Staphylococcus aureus; test: Antibacterial activity against wild type Staphylococcus aureus 4482/A assessed as reduction in microbial growth incubated for 24 hrs by microdilution assay; type: functional
[23] = tested on: Staphylococcus aureus; test: microbe, parasite or virus in culture; conditions: 4880/C, 24 h
Description: Antibacterial activity against wild type Staphylococcus aureus 4880/C assessed as reduction in microbial growth incubated for 24 hrs by microdilution assay

[24] = tested on: Staphylococcus aureus; test: Antibacterial activity against wild type Staphylococcus aureus 4515/A assessed as reduction in microbial growth incubated for 24 hrs by microdilution assay; type: functional
[25] = tested on: Staphylococcus aureus; test: Antibacterial activity against wild type methicillin resistant Staphylococcus aureus 5017/C assessed as reduction in microbial growth incubated for 24 hrs by microdilution assay; type: functional
[26] = tested on: Staphylococcus aureus; test: Antibacterial activity against wild type Staphylococcus aureus 4883/C assessed as reduction in microbial growth incubated for 24 hrs by microdilution assay; type: functional
[27] = tested on: Staphylococcus aureus; test: Antibacterial activity against wild type Staphylococcus aureus 4788/B assessed as reduction in microbial growth incubated for 24 hrs by microdilution assay; type: functional
[28] = tested on: Staphylococcus aureus; test: Antibacterial activity against wild type Staphylococcus aureus 77/CF assessed as reduction in microbial growth incubated for 24 hrs by microdilution assay; type: functional
[29] = tested on: Staphylococcus aureus; test: Antibacterial activity against wild type Staphylococcus aureus 4904/C assessed as reduction in microbial growth incubated for 24 hrs by microdilution assay; type: functional
[30] = tested on: Staphylococcus aureus; test: Antibacterial activity against wild type Staphylococcus aureus 4717/B assessed as reduction in microbial growth incubated for 24 hrs by microdilution assay; type: functional
[31] = tested on: Staphylococcus aureus; test: Antibacterial activity against wild type Staphylococcus aureus 4566/A assessed as reduction in microbial growth incubated for 24 hrs by microdilution assay; type: functional
[32] = tested on: Staphylococcus aureus; test: Antibacterial activity against wild type Staphylococcus aureus 4738/B assessed as reduction in microbial growth incubated for 24 hrs by microdilution assay; type: functional
[33] = tested on: Staphylococcus aureus; test: Antibacterial activity against wild type Staphylococcus aureus 4502/A assessed as reduction in microbial growth incubated for 24 hrs by microdilution assay; type: functional
[34] = tested on: Staphylococcus aureus; test: Antibacterial activity against wild type Staphylococcus aureus 4740/B assessed as reduction in microbial growth incubated for 24 hrs by microdilution assay; type: functional
[35] = tested on: Staphylococcus aureus; test: microbe, parasite or virus in culture; conditions: 4862/C, 24 h
Description: Antibacterial activity against wild type Staphylococcus aureus 4862/C assessed as reduction in microbial growth incubated for 24 hrs by microdilution assay

[36] = tested on: Staphylococcus aureus; test: Antibacterial activity against wild type Staphylococcus aureus 4679/B assessed as reduction in microbial growth incubated for 24 hrs by microdilution assay; type: functional
[37] = tested on: Staphylococcus aureus; test: Antibacterial activity against wild type methicillin resistant Staphylococcus aureus 4968/C assessed as reduction in microbial growth incubated for 24 hrs by microdilution assay; type: functional
[38] = tested on: Staphylococcus aureus; test: Antibacterial activity against wild type methicillin resistant Staphylococcus aureus 4561/A assessed as reduction in microbial growth incubated for 24 hrs by microdilution assay; type: functional

## CCC/C=C\CCOP(=O)(CCN(CCCN)CCCN)OCCCOP(=O)(CCN(CCCN)CCCN)OCC/C=C\CCC.Cl.Cl.Cl.Cl.Cl.Cl (stereo not given)
[1]
  MIC: 64 µg/mL
[2]
  CHI: 23.4
[3]
  MIC: 32 µg/mL
[4]
  MIC: 128 µg/mL
[5]
  MIC: > 128 µg/mL
[6]
  MIC: > 128 µg/mL
[7]
  MIC: > 128 µg/mL
[8]
  MIC: 8 µg/mL
[9]
  MIC: 64 µg/mL
[10]
  MIC: > 128 µg/mL
[11]
  MIC: > 128 µg/mL
[12]
  CC50: > 99 µM
[13]
  MIC: 128 µg/mL
[14]
  HC50 at 3 h: > 200 µg/mL

## CCCCOP(=O)(CCN(CCN)CCN)OCCCCCCCCCCOP(=O)(CCN(CCN)CCN)OCCCC.Cl.Cl.Cl.Cl.Cl.Cl (stereo not given)
[1]
  MIC: 64 µg/mL
[2]
  CHI: 34.2
[3]
  MIC: 128 µg/mL
[4]
  MIC: 64 µg/mL
[5]
  MIC: > 128 µg/mL
[6]
  MIC: 64 µg/mL
[7]
  MIC: > 128 µg/mL
[8]
  MIC: 64 µg/mL
[9]
  MIC: > 128 µg/mL
[10]
  MIC: 128 µg/mL
[11]
  MIC: 64 µg/mL
[12]
  CC50: > 99 µM
[13]
  MIC: 128 µg/mL
[14]
  HC50 at 3 h: 55 µg/mL

## CC1(C)S[C@@H]2[C@H](NC(=O)[C@H](N)c3ccccc3)C(=O)N2[C@H]1C(=O)O [AMPICILLIN]
[15]
  MIC: 0.5 µg/mL
[16]
  MIC: 0.5 µg/mL
[17]
  MIC: 1 µg/mL
[18]
  MIC: 0.5 µg/mL
[19]
  MIC: 0.5 µg/mL
[20]
  MIC: 1 µg/mL
[21]
  MIC: 0.5 µg/mL
[22]
  MIC: 1 µg/mL
[23]
  MIC: 0.5 µg/mL (≈ 1.43 µM)
[24]
  MIC: 0.5 µg/mL
[25]
  MIC: > 16 µg/mL
[26]
  MIC: 0.5 µg/mL
[27]
  MIC: 0.5 µg/mL
[28]
  MIC: 0.5 µg/mL
[29]
  MIC: 0.5 µg/mL
[30]
  MIC: 0.5 µg/mL
[31]
  MIC: 0.5 µg/mL
[32]
  MIC: 0.5 µg/mL
[33]
  MIC: 0.5 µg/mL
[34]
  MIC: 0.5 µg/mL
[35]
  MIC: 1 µg/mL (≈ 2.86 µM)
[36]
  MIC: 1 µg/mL

## CCCCCCCCOP(=O)(CCN(CCN)CCN)OCCCCCCOP(=O)(CCN(CCN)CCN)OCCCCCCCC.Cl.Cl.Cl.Cl.Cl.Cl (stereo not given)
[1]
  MIC: 0.5 µg/mL
[2]
  CHI: 43.2
[3]
  MIC: 0.5 µg/mL
[4]
  MIC: 2 µg/mL
[5]
  MIC: 1 µg/mL
[6]
  MIC: 1 µg/mL
[7]
  MIC: 1 µg/mL
[8]
  MIC: 0.5 µg/mL
[9]
  MIC: 5 µg/mL
[10]
  MIC: 4 µg/mL
[11]
  MIC: 1 µg/mL
[12]
  CC50: 80.6 µM
[13]
  MIC: 2 µg/mL
[14]
  HC50 at 3 h: 79 µg/mL

## Cl.Cl.Cl.Cl.Cl.Cl.NCCCN(CCCN)CCP(=O)(OCCCCCOP(=O)(CCN(CCCN)CCCN)OCC12CC3CC(CC(C3)C1)C2)OCC12CC3CC(CC(C3)C1)C2 (stereo not given)
[1]
  MIC: 2 µg/mL
[2]
  CHI: 34.1
[3]
  MIC: 2 µg/mL
[4]
  MIC: 32 µg/mL
[5]
  MIC: 4 µg/mL
[6]
  MIC: 2 µg/mL
[7]
  MIC: 2 µg/mL
[8]
  MIC: 2 µg/mL
[9]
  MIC: 2 µg/mL
[10]
  MIC: 64 µg/mL
[11]
  MIC: 4 µg/mL
[12]
  CC50: > 99 µM
[13]
  MIC: 8 µg/mL
[14]
  HC50 at 3 h: 415 µg/mL

## Cl.Cl.Cl.Cl.Cl.Cl.NCCCN(CCCN)CCP(=O)(OCCCOP(=O)(CCN(CCCN)CCCN)OCCC12CC3CC(CC(C3)C1)C2)OCCC12CC3CC(CC(C3)C1)C2 (stereo not given)
[1]
  MIC: 1 µg/mL
[2]
  CHI: 36.9
[3]
  MIC: 1 µg/mL
[4]
  MIC: 16 µg/mL
[5]
  MIC: 2 µg/mL
[6]
  MIC: 2 µg/mL
[7]
  MIC: 1 µg/mL
[8]
  MIC: 2 µg/mL
[9]
  MIC: 2 µg/mL
[10]
  MIC: 32 µg/mL
[11]
  MIC: 2 µg/mL
[12]
  CC50: 93.6 µM
[13]
  MIC: 4 µg/mL
[14]
  HC50 at 3 h: 196 µg/mL

## CCCCCCCOP(=O)(CCN(CCCN)CCCN)OCCCCCCCOP(=O)(CCN(CCCN)CCCN)OCCCCCCC.Cl.Cl.Cl.Cl.Cl.Cl (stereo not given)
[1]
  MIC: 1 µg/mL
[2]
  CHI: 33.9
[3]
  MIC: 1 µg/mL
[4]
  MIC: 16 µg/mL
[5]
  MIC: 2 µg/mL
[6]
  MIC: 8 µg/mL
[7]
  MIC: 1 µg/mL
[8]
  MIC: 0.5 µg/mL
[9]
  MIC: 1 µg/mL
[10]
  MIC: 64 µg/mL
[11]
  MIC: 4 µg/mL
[12]
  CC50: 89.5 µM
[13]
  MIC: 8 µg/mL
[14]
  HC50 at 3 h: 287 µg/mL

## CCCCC/C=C\CCOP(=O)(CCN(CCCN)CCCN)OCCCCCOP(=O)(CCN(CCCN)CCCN)OCC/C=C\CCCCC.Cl.Cl.Cl.Cl.Cl.Cl (stereo not given)
[1]
  MIC: 1 µg/mL
[2]
  CHI: 37.2
[3]
  MIC: 1 µg/mL
[4]
  MIC: 4 µg/mL
[5]
  MIC: 1 µg/mL
[6]
  MIC: 2 µg/mL
[7]
  MIC: 1 µg/mL
[8]
  MIC: 1 µg/mL
[9]
  MIC: 2 µg/mL
[10]
  MIC: 32 µg/mL
[11]
  MIC: 4 µg/mL
[12]
  CC50: 97.8 µM
[13]
  MIC: 4 µg/mL
[14]
  HC50 at 3 h: > 500 µg/mL

## O=C(O)c1cn(C2CC2)c2cc(N3CCNCC3)c(F)cc2c1=O [CIPROFLOXACIN]
[15]
  MIC: 0.25 µg/mL
[16]
  MIC: 0.25 µg/mL
[17]
  MIC: 0.25 µg/mL
[18]
  MIC: 0.25 µg/mL
[37]
  MIC: > 8 µg/mL
[19]
  MIC: 0.25 µg/mL
[38]
  MIC: > 8 µg/mL
[21]
  MIC: 0.25 µg/mL
[23]
  MIC: 0.25 µg/mL (≈ 0.754 µM)
[25]
  MIC: > 8 µg/mL
[26]
  MIC: 0.25 µg/mL
[27]
  MIC: 0.063 µg/mL
[28]
  MIC: 0.5 µg/mL
[29]
  MIC: 0.25 µg/mL
[30]
  MIC: 0.25 µg/mL
[31]
  MIC: 0.25 µg/mL
[32]
  MIC: 0.25 µg/mL
[34]
  MIC: 0.5 µg/mL
[35]
  MIC: 0.25 µg/mL (≈ 0.754 µM)
[36]
  MIC: 0.25 µg/mL
